System: single oligonucleotide with a low probability of self-hybridization (ssDNA) (DNA, single strand) GAACAACGCTCCAACCATCGC
Experiment: absorption and fluorescence titration
Conditions: 3 µM DOX; absorption changes, fluorescence hardly quenched

Q: For COc1cccc2c1C(=O)c1c(O)c3c(c(O)c1C2=O)C[C@@](O)(C(=O)CO)C[C@@H]3O[C@H]1C[C@H](N)[C@H](O)[C@H](C)O1, which binding is on record?
A: weak

— publication PMC8034656 (2021)
